From patent US11952353B2, “STAT3 transcription factor inhibitors and methods of using the same” (The Regents of the University of Colorado, A Body Corporate, priority 2018, dated 2024)
Values belong to the compound of their own block, whether it stands above or below them.

Tests used:
[1] = biological target: T1, SH2 domain of STAT3 (Homo sapiens, UniProt P40763); assay: Fluorescence polarization (FP) assay; type: binding; conditions: 25 μM
T1 construct: 100 nM of full length GST-tagged human STAT3 protein (Abcam); purchased Abcam
Experimental: FP assay was conducted as previously reported (Steffanie L. Furtek, S. L., et al., Evaluation of quantitative assays for the identification of direct signal transducer and activator of transcription 3 (STAT3) inhibitors (November 2016) Oncotarget 7(47): 77998-78008). Briefly, assay buffer (10 mM HEPES, pH 7.5, 50 mM NaCl, 1 mM EDTA, 2 mM DTT, and 0.01% Triton-X100), 100 nM of full length GST-tagged human STAT3 protein (Abcam), and varying concentrations of compounds were incubated for 1 hour at room temperature with mild agitation in 96-well half area black plates (Corning). Fluorescent peptide 5-FAM-G(pTyr)LPQTV-CONH2 (Genscript) was added to each assay well at a concentration of 10 nM. Final well volumes were 30 μL. Following incubation with fluorescent peptide for 30 minutes at room temperature with mild agitation, plates were examined using FP Fluorescein Dual module with excitation filter FITC FP 480 and emission filter FITC FP P-pol535 and S-pol535. Data was expressed as percent control using the equation % C=(mPdrug−mPfree)/(mPSTAT3−mPfree)*100 where mP is the value for FP measurement.

[2] = biological target: T2, full-length, GST-tagged human STAT3 protein (Homo sapiens, UniProt P40763); assay: Recombinant STAT3 ELISA (STAT3/DNA binding); type: biochemical; conditions: 2 μM; for mean value, % of STAT3 only control: 1 hour incubation
T2 construct: full-length, GST-tagged human STAT3 protein and various concentrations of compounds
Experimental: Measurement of STAT3 binding to DNA was performed using a TransAM STAT3 ELISA kit (Active Motif) and according to the previously used protocol. Briefly, full-length, GST-tagged human STAT3 protein and various concentrations of compounds to be evaluated or niclosamide were incubated in Complete Lysis Buffer at a final volume of 20 μL containing 0.1 μg recombinant protein for 1 hour with mild agitation. Following incubation with STAT3 inhibitors, samples were added to corresponding ELISA wells with 30 μL of Complete Binding Buffer and inhibition of STAT3 protein binding to the DNA consensus sequence was determined. Data was reported as percent of control.

[3] = test system: HeLa cells; assay: MTT cell viability assay; type: cell-based; conditions: 24 h; for EC50: Homo sapiens
Experimental: HeLa cells were plated in 96-well plates at a density of 5,000 cells/well in 100 μL of media and were incubated for 24 hours. Media was then aspirated and replaced with 100 μL of media containing various concentrations of compounds ranging from 500 μM-0.0019 μM. Cells were exposed to compounds for 24 hours, following which the media was aspirated and 50 μL MTT solution diluted in media was added to each well at a final concentration of 1 mg/mL. MTT was exposed to cells for 4 hours, aspirated, and then 100 μL of DMSO was added to each well. Plates were agitated for 10 minutes prior to reading absorbance at 540 nm in a microplate reader. Data was normalized and reported as percent of control.

[4] = test system: HeLa cells; assay: Caspase 3/7 assay (apoptosis); type: cell-based; conditions: 24 and 48 hours
Experimental: The effect of STAT3 inhibitor on caspase activity was evaluated using a Caspase-Glo 3/7 kit (Promega) according to product directions. Briefly, HeLa cells were plated in white-walled, clear bottom 96-well plates at a density of 5,000 cells/well in 100 μL of media and were incubated for 24 hours. Media was then aspirated and replaced with 100 μL of media containing 1 μM or 10 μM of STAT3 inhibitor. Cells were exposed to compounds for 24 and 48 hours, following which plates were allowed to equilibrate to room temperature. Reconstituted caspase reagent was added to sample wells in a 1:1 ratio, mixed, and incubated in the dark for 1 hour. Luminescence was read using a microplate reader.

[5] = biological target: T3, STAT3 (Homo sapiens, UniProt P40763); assay: Cell-based STAT3 DNA-binding ELISA; conditions: HeLa; for reduction of STAT3/DNA-binding: 24 h, 1 μM; for EC50: 24 h dose response
T3 construct: endogenous in cells; host or cells: HeLa
Experimental: Nuclear extracts were prepared using a nuclear extraction kit (Signosis) according to product directions. Briefly, 100 mm dishes of cells were washed with 1×PBS and then 1 mL of 1× Buffer I was added and dishes were rocked on ice for 10 minutes. Cells were released from the dish using a sterile scraper and centrifuged at 1200 rpm for 5 minutes at 4° C. The supernatant was discarded and the pellets were resuspended in 1× Buffer II and shaken on ice for 2 hours. Samples were centrifuged at 1200 rpm for 5 minutes at 4° C. and the resulting supernatants containing the nuclear extracts were placed in new microcentrifuge tubes. Protein concentrations of samples were determined via Bradford assay.
HeLa cells were plated at 1 million cells per 100 mm dish and incubated for approximately 72 hours, resulting in serum-starved confluent plates. Plates were then washed with PBS and fresh media was added containing concentrations of compounds to be evaluated or niclosamide for 24 hours. For single concentrations of compounds, cells were treated with 1 μM of compounds, as derived from 24 hour MTT assay EC50 value for niclosamide. Dose-responses of niclosamide, compound 8, and compound 17 were similarly prepared at concentrations ranging from 2-0.0156 μM. Following incubation with compounds, cellular nuclear extracts were prepared.
Measurement of STAT3 binding to DNA was performed using the TransAM STAT3 ELISA kit. Sample wells contained 20 μg of nuclear extracts from treated HeLa cells diluted in 20 μL of Complete Lysis Buffer. The ELISA was then performed as described in the recombinant ELISA section. Data was normalized and reported as percent of control.

[6] = test system: Cord-blood derived CD34+ normal hematopoietic stem cells; assay: Colony formation of normal hematopoietic stem cells; type: cell-based
Experimental: (§1) Cord-blood derived CD34+ normal hematopoietic stem cells were treated with compound 17 (STAT3i).

[7] = test system: Cord-blood derived CD34+ normal hematopoietic stem cells; assay: Viability of normal hematopoietic stem cells; type: cell-based
Experimental: as §1

[8] = test system: Leukemia Stem cells (LSCs); assay: Seahorse assay of oxygen consumption; type: cell-based; conditions: four hours incubation
Experimental: (§2) Leukemia stem cells (LSCs) were incubated with compound 17 (STAT3i) for four hours. Seahorse assays were then used to measure oxygen consumption. […] Flow cytometry analysis verified that there was no cell death at the time of RNAseq analysis. FIG. 19 is a chart showing the expression changes of various genes involved in OXPHOS after incubation with compound 17. FIG. 20 is an image of western blot analysis of the expression of electron transport chain genes after incubating cells with compound 17.

[9] = test system: Leukemia Stem cells (LSCs); assay: Leukemia stem cell viability (apoptosis markers, flow cytometry); type: cell-based; conditions: 24 hours
Experimental: (§3) Leukemia Stem cells (LSCs) were incubated with compound 17 (STAT3i) for 24 hours and cell viability was measured. […] Primary human AML cells were treated with compound 17 (STAT3i). The cells were then cultured on methylcellulose and colony formation was measured. […] STAT3 was knocked down in primary human AML samples using shRNA methods (shSTAT3).

[10] = test system: Leukemia Stem cells (LSCs); assay: RNAseq, qPCR and western blot expression analysis in LSCs; type: cell-based
Experimental: as §2
Leukemia stem cells (LSCs) were incubated with compound 17 (STAT3i) and RNAseq analysis was subsequently performed. […] Knockdown of Myc in LSCs using siRNA leads to a subsequent downregulation of the glutamine receptor SLC1A5 and a decrease in OXPHOS.

[11] = test system: Primary human AML cells; assay: Colony formation on methylcellulose; type: cell-based
Experimental: as §3

[12] = test system: Primary AML samples; assay: Glutamine flux, ROS and western blot in primary AML samples; type: cell-based
Experimental: Primary AML samples were incubated with heavy labeled glutamine in flux experiments aimed at measuring TCA cycle metabolites. […] FIG. 22 is a graph showing that reactive oxygen species (ROS) is increased in AML cells that were treated with compound 17 (STAT3i).

[13] = test system: Primary AML cells; assay: Engraftment of treated primary AML cells transplanted into immunodeficient mice; type: in vivo; conditions: then transplanted into immunodeficient mice
Experimental: Primary AML cells were treated with compound 17 (STAT3i) and transplanted into immunodeficient mice.

[14] = biological target: T1, SH2 domain of STAT3; conditions: concentrations above 10 μM; cited from earlier work

T3 sequence (P40763 whole entry): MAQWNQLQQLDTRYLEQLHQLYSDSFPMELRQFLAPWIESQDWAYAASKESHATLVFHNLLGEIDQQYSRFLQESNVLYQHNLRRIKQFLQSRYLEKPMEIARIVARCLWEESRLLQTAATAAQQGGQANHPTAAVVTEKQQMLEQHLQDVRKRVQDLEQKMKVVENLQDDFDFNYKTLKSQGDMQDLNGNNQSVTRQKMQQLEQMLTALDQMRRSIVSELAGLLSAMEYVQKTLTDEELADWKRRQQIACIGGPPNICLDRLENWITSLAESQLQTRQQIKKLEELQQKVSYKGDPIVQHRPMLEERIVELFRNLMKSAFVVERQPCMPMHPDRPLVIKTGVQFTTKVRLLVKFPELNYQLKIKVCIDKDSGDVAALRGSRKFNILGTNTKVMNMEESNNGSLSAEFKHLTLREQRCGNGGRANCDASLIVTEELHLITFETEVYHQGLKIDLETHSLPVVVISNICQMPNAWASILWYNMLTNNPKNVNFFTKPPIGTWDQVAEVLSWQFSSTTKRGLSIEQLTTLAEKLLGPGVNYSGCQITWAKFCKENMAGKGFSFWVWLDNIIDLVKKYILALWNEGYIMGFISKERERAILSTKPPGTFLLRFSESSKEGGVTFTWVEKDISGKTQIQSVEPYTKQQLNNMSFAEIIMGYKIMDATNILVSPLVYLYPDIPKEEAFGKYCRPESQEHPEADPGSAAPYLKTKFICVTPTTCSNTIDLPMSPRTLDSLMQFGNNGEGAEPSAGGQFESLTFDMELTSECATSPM
T1 sequence (P40763 whole entry, the tested form may be a part): as the sequence (P40763 whole entry) above
T2 sequence (P40763 whole entry): as above

- affinity for the SH2 domain [1]: slight affinity for the SH2 domain
Compound: Nc1ccc(NC(=O)c2cc(N)ccc2O)c(Cl)c1 [Compound 10, 5-Amino-N-(4-amino-2-chlorophenyl)-2-hydroxybenzamide]

- reduction of recombinant STAT3/DNA-binding relative to niclosamide [2]: performed worse than niclosamide
- mean value, % of STAT3 only control [2]: 80%
Compound: O=C(Nc1ccccc1Cl)c1cc(Cl)ccc1O [Compound 3, 5-Chloro-N-(2-chlorophenyl)-2-hydroxybenzamide]

- reduction of recombinant STAT3/DNA-binding relative to niclosamide [2]: means less than or equal to niclosamide
Compound: O=C(Nc1ccc([N+](=O)[O-])cc1Cl)c1cc(Cl)ccc1Cl [Compound 18, 2,5-Dichloro-N-(2-chloro-4-nitrophenyl)benzamide]

- reduction of recombinant STAT3/DNA-binding relative to niclosamide [2]: performed worse than niclosamide
- mean value, % of STAT3 only control [2]: 76%
Compound: O=C(Oc1ccc([N+](=O)[O-])cc1Cl)c1cc(Cl)ccc1O [Compound 4, 2-Chloro-4-nitrophenyl 5-chloro-2-hydroxybenzoate]

- affinity for the SH2 domain [1]: slight affinity for the SH2 domain
Compound: O=C(Nc1ccc([N+](=O)[O-])cc1Cl)c1cc(Cl)c(-c2ccccc2)cc1O [Compound 14, 2-Chloro-N-(2-chloro-4-nitrophenyl)-5-hydroxy-[1,1′-biphenyl]-4-carboxamide]

- EC50 [3]: 1000 nM
- reduction of STAT3/DNA-binding [5]: approx. 80%
- EC50 [5]: 179 ± 28 nM
Compound: O=C(Nc1ccc([N+](=O)[O-])cc1Cl)c1cc(Cl)ccc1O [niclosamide, reference compound]
- induction of apoptosis ([4]; 1 μM): only a slight increase in apoptosis
- induction of apoptosis ([4]; 10 μM): twice as much apoptosis

Continued, compound first:

Compound: O=C(Nc1ccc([N+](=O)[O-])cc1Br)c1cc(Br)ccc1O [Compound 2, 5-Bromo-N-(2-bromo-4-nitrophenyl)-2-hydroxybenzamide]
- affinity for the SH2 domain [1]: slight affinity for the SH2 domain

Compound: O=C(Nc1ccc([N+](=O)[O-])cc1Cl)c1cc([N+](=O)[O-])ccc1O [Compound 9, N-(2-Chloro-4-nitrophenyl)-2-hydroxy-5-nitrobenzamide]
- reduction of recombinant STAT3/DNA-binding relative to niclosamide [2]: means less than or equal to niclosamide

Compound: CN(C(=O)c1cc(Cl)ccc1O)c1ccc([N+](=O)[O-])cc1Cl [Compound 8, 5-Chloro-N-(2-chloro-4-nitrophenyl)-2-hydroxy-N-methylbenzamide]
- EC50 [3]: 1150 ± 380 nM
- induction of apoptosis ([4]; 10 μM): time-dependent increase in apoptosis
- reduction of recombinant STAT3/DNA-binding relative to niclosamide [2]: means less than or equal to niclosamide
- reduction of STAT3/DNA-binding [5]: approx. 80%
- EC50 [5]: 239 ± 39 nM

Compound: O=C(Nc1ccc([N+](=O)[O-])cc1Cl)c1cc(Cl)c(-c2ccco2)cc1O [Compound 17, 5-Chloro-N-(2-chloro-4-nitrophenyl)-4-(furan-2-yl)-2-hydroxybenzamide]
- total cell viability [3]: did not drop below 50% until high concentrations
- EC50 [3]: 315 ± 70 nM
- colony formation of CD34+ normal hematopoietic stem cells [6]: not affected
- induction of apoptosis ([4]; 1 μM): time-dependent increase in apoptosis
- viability of CD34+ normal hematopoietic stem cells [7]: not affected
- oxygen consumption [8]: decrease in oxygen consumption
- reduction of recombinant STAT3/DNA-binding relative to niclosamide [2]: means less than or equal to niclosamide
- reduction of STAT3/DNA-binding [5]: approx. 80%
- EC50 [5]: 59 ± 11 nM
- cell viability of LSCs [9]: significant cell death
- expression of OXPHOS and mitochondrial matrix genes [10]: decrease in the expression
- Myc expression ([10]; verified by qPCR and western blot): decreased
- colony formation of primary human AML cells [11]: significant decrease in colony formation
- reactive oxygen species (ROS) ([12]; AML cells): increased
- TCA cycle metabolites ([12]; heavy labeled glutamine flux): decrease in TCA cycle metabolites
- SLCA15 expression ([12]; western blot): downregulated
- engraftment of primary AML cells [13]: decreased engraftment

Compound: S3I-1757 [Compound S3I-1757]
- inhibition of fluorescent peptide binding [14]: complete inhibition
